Columns and labels:
[1] = molecular target: T1, wild type AXL (wtAXL) receptor tyrosine kinase (Homo sapiens, UniProt P30530); assay: NIH-3T3-AXL cellular tyrosine kinase assay (inhibition of AXL phosphorylation); format: cell-based; settings: AXL phosphorylation in NIH-3T3-AXL (clone 22) cells, serum-depleted, 2 h with compound, immunoprecipitation / anti-phosphotyrosine blot
T1 construct: WtAXL cDNA was cloned into vector pLXSN(ESK) and transfected into Phoenix E packaging cells; expressed in transfected cells; host or cells: NIH3T3 N7 mouse fibroblasts, retrovirally infected (clone 22)
T1 sequence (P30530 26-894): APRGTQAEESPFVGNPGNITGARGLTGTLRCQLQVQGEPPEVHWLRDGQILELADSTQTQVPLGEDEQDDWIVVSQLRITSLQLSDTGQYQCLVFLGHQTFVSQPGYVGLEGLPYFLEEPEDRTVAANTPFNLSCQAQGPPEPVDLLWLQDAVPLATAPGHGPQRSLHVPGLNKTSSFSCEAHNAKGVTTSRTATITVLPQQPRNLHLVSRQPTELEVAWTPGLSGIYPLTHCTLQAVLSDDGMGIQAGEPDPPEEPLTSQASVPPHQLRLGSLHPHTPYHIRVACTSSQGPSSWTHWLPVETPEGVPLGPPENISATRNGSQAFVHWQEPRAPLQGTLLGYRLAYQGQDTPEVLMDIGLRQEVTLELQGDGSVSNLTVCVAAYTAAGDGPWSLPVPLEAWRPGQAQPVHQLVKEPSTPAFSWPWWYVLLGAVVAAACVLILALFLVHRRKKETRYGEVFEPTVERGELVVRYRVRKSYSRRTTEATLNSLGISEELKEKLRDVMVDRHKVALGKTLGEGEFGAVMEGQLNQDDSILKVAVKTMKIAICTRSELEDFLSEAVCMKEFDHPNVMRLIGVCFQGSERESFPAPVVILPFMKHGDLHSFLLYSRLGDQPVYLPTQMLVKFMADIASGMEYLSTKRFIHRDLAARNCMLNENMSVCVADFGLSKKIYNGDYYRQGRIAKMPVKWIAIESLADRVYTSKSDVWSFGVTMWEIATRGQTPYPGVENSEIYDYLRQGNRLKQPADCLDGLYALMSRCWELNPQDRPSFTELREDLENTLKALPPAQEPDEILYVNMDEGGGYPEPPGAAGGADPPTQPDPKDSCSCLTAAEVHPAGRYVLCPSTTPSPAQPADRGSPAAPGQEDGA
Description: 3) Inhibitory Activity of Compounds on Axl Phosphorylation in NIH-3T3-AXL Cellular Tyrosine Kinase Assay
The viral supernatant was collected and used to infect target cells NIH3T3 N7. Monoclonal NIH3T3-AXL cell lines stably expressing wtAXL were generated by selecting retrovirally infected cells in medium containing puromycin (2 μg/ml) and subsequent clonal separation.
NIH-3T3-AXL Cellular Kinase Assay
Serial dilutions of compounds were added, and the cells were further incubated or 2 h. […] The clarified cell lysate (10 min at 13000 rpm at 4° C.) were used for immunoprecipitation. Equal amounts of protein were mixed with 2 μg anti-AXL polyclonal antibody (homemade) and 20 μl Protein A sepharose beads, and rotated for 6 hr at 4° C. After immunoprecipitation, the beads were washed three times with 1×HNTG (50 mM HEPES (pH 7.5), 150 mM NaCl, 10% Glycerol, 0.2% Triton X-100). The final pellet was suspended in 20 μl 2× Laemmli buffer, and boiled for 5 min at 100° C. […] The membrane was then incubated with anti-phosphotyrosine antibody (4G10) overnight at 4° C. followed by washing with 1×TBST buffer three times. After incubating membrane with HRP-conjugated anti-mouse secondary antibody for 1 hour at room temperature followed by washing with 1×TBST buffer three times, the proteins were visualized by ECL.

| SMILES | melting point | IC50 [1] |
| --- | --- | --- |
| COc1cc2nccc(Oc3ccc(NS(=O)(=O)c4cccc(-c5ncccn5)c4)cc3F)c2cc1OC [Example A101, N-[4-(6,7-Dimethoxy-quinolin-4-yloxy)-3-fluoro-phenyl]-3-pyrimidin-2-yl-benzenesulfonamide] | 105 to 107 °C | > 1000 nM |
| COc1cc2nccc(Oc3ccc(NS(=O)(=O)c4cc(C(F)(F)F)ccc4Br)c(F)c3)c2cc1OC [Example A46, 2-Bromo-N-[4-(6,7-dimethoxy-quinolin-4-yloxy)-2-fluoro-phenyl]-5-trifluoromethyl-benzenesulfonamide] | 227 to 230 °C | > 10000 nM |
| COc1cc2nccc(Oc3ccc(NS(=O)(=O)c4cccc5ccccc45)c(F)c3)c2cc1OC [Example A17, Naphthalene-1-sulfonic acid [4-(6,7-dimethoxy-quinolin-4-yloxy)-2-fluoro-phenyl]-amide] | 243 to 245 °C | 890 nM |
| COc1cc2nccc(Oc3ccc(NS(=O)(=O)/C=C/c4ccccc4)c(F)c3)c2cc1OC [Example A16, 2-Phenyl-ethenesulfonic acid [4-(6,7-dimethoxy-quinolin-4-yloxy)-2-fluoro-phenyl]-amide] | 224 to 225 °C | 1810 nM |
| COc1cc2nccc(Oc3ccc(NS(=O)(=O)c4cnc(C)[nH]4)cc3)c2cc1OC [Example A80, 2-Methyl-3H-imidazole-4-sulfonic acid [4-(6,7-dimethoxy-quinolin-4-yloxy)-phenyl]-amide] | 268 to 269 °C | > 10000 nM |
| COc1cc2nccc(Oc3ccc(NS(=O)(=O)c4cccc(Oc5ccccc5)c4)cc3)c2cc1OC [Example A115, N-[4-(6,7-Dimethoxy-quinolin-4-yloxy)-phenyl]-3-phenoxy-benzenesulfonamide] | 172 to 174 °C | 1260 nM |
| COc1cc2nccc(Oc3ccc(NS(=O)(=O)c4cccc(-c5ccccc5)c4)c(C)c3)c2cc1OC [Example A89, Biphenyl-3-sulfonic acid [4-(6,7-dimethoxy-quinolin-4-yloxy)-2-methyl-phenyl]-amide] | 220 to 222 °C | 450 nM |
| COc1cc2nccc(Oc3ccc(NS(=O)(=O)c4ccc(OC)c5ccccc45)c(F)c3)c2cc1OC [Example A63, 4-Methoxy-naphthalene-1-sulfonic acid [4-(6,7-dimethoxy-quinolin-4-yloxy)-2-fluoro-phenyl]-amide] | 226 to 227 °C | > 1000 nM |
| COc1cc2nccc(Oc3ccc(NS(=O)(=O)c4ccc(Br)s4)c(F)c3)c2cc1OC [Example A29, 5-Bromo-thiophene-2-sulfonic acid [4-(6,7-dimethoxy-quinolin-4-yloxy)-2-fluoro-phenyl]-amide] | 207 to 209 °C | 2300 nM |
| COc1cc2nccc(Oc3ccc(NS(=O)(=O)c4cccc5cnccc45)cc3)c2cc1OC [Example A78, Isoquinoline-5-sulfonic acid [4-(6,7-dimethoxy-quinolin-4-yloxy)-phenyl]-amide] | 229 to 231 °C | > 3000 nM |
| CCn1cc(S(=O)(=O)Nc2ccc(Oc3ccnc4cc(OC)c(OC)cc34)cc2F)cn1 [Example A31, 1-Ethyl-1H-pyrazole-4-sulfonic acid [4-(6,7-dimethoxy-quinolin-4-yloxy)-2-fluoro-phenyl]-amide] | 211 to 213 °C | > 10000 nM |
| COc1cc2nccc(Oc3ccc(NS(=O)(=O)c4cn(C)cn4)c(F)c3)c2cc1OC [Example A32, 1-Methyl-1H-imidazole-4-sulfonic acid [4-(6,7-dimethoxy-quinolin-4-yloxy)-2-fluoro-phenyl]-amide] | 215 to 217 °C | > 10000 nM |
| COc1cc(S(=O)(=O)Nc2ccc(Oc3ccnc4cc(OC)c(OC)cc34)cc2C)ccc1F [Example A154, N-[4-(6,7-Dimethoxy-quinolin-4-yloxy)-2-methyl-phenyl]-4-fluoro-3-methoxy-benzenesulfonamide] | 228 to 229 °C | > 10000 nM |
| COc1cc2nccc(Oc3ccc(NS(=O)(=O)c4ccc(Br)cc4OC(F)(F)F)cc3OC)c2cc1OC [Example A148, 4-Bromo-N-[4-(6,7-dimethoxy-quinolin-4-yloxy)-3-methoxy-phenyl]-2-trifluoromethoxy-benzenesulfonamide] | 176 to 177 °C | > 10000 nM |
| COc1cc2nccc(Oc3ccc(NS(=O)(=O)c4cc5ccccc5s4)cc3)c2cc1OC [Example A83, Benzo[b]thiophene-2-sulfonic acid [4-(6,7-dimethoxy-quinolin-4-yloxy)-phenyl]-amide] | 222 to 225 °C | > 3000 nM |
| COc1cc2nccc(Oc3ccc(NS(=O)(=O)c4ccc(C)s4)c(F)c3)c2cc1OC [Example A21, 5-Methyl-thiophene-2-sulfonic acid [4-(6,7-dimethoxy-quinolin-4-yloxy)-2-fluoro-phenyl]-amide] | 218 to 220 °C | 4700 nM |
| COc1cc2nccc(Oc3ccc(NS(=O)(=O)c4ccc5c(c4)CC(=O)N5C)cc3)c2cc1OC [Example A85, 1-Methyl-2-oxo-2,3-dihydro-1H-indole-5-sulfonic acid [4-(6,7-dimethoxy-quinolin-4-yloxy)-phenyl]-amide] | 119 to 122 °C | > 3000 nM |

Results, then the compound that gave them:

| melting point | IC50 [1] | SMILES |
| --- | --- | --- |
| 203 to 205 °C | 7000 nM | Cc1cc(Oc2ccc(NS(=O)(=O)c3cc(Cl)cc(Cl)c3O)cc2)c2cc(F)ccc2n1 [Example B22, 3,5-Dichloro-N-[4-(6-fluoro-2-methyl-quinolin-4-yloxy)-phenyl]-2-hydroxy-benzenesulfonamide] |
| 164 to 166 °C | 8000 nM | Cc1cc(Oc2ccc(NS(=O)(=O)c3ccc(-c4cnco4)s3)cc2)c2cc(F)ccc2n1 [Example B19, 5-Oxazol-5-yl-thiophene-2-sulfonic acid [4-(6-fluoro-2-methyl-quinolin-4-yloxy)-phenyl]-amide] |
| 193 to 196 °C | 783 nM | COc1cc2c(Oc3ccc(NS(=O)(=O)c4ccccc4C#N)cc3F)ccnc2cc1OCCN1CCOCC1 [Example D27, 2-Cyano-N-{3-fluoro-4-[6-methoxy-7-(2-morpholin-4-yl-ethoxy)-quinolin-4-yloxy]-phenyl}-benzenesulfonamide] |
| 190 to 191 °C | > 10000 nM | Cc1cc(Oc2ccc(NS(=O)(=O)c3cccc(C#N)c3)c(F)c2)c2cc(F)ccc2n1 [Example B2, 3-Cyano-N-[2-fluoro-4-(6-fluoro-2-methyl-quinolin-4-yloxy)-phenyl]-benzenesulfonamide] |
| 181 to 183 °C | > 10000 nM | Cc1cc(Oc2ccc(NS(=O)(=O)c3cc(Cl)cc(Cl)c3)c(F)c2)c2cccc(C(F)(F)F)c2n1 [Example C01, 3,5-Dichloro-N-[2-fluoro-4-(2-methyl-8-trifluoromethyl-quinolin-4-yloxy)-phenyl]-benzenesulfonamide] |
| 135 to 137 °C | 128 nM | COc1cc2c(Oc3ccc(NS(=O)(=O)c4ccc(F)cc4F)cc3F)ccnc2cc1OCCCN1CCC(C)CC1 [Example D19, 2,4-Difluoro-N-(3-fluoro-4-{6-methoxy-7-[3-(4-methyl-piperidin-1-yl)-propoxy]-quinolin-4-yloxy}-phenyl)-benzenesulfonamide] |
| 160 to 162 °C | 477 nM | CCCS(=O)(=O)Nc1ccc(Oc2ccnc3cc(OCCCN4CCC(C)CC4)c(OC)cc23)c(F)c1 [Example D22, Propane-1-sulfonic acid (3-fluoro-4-{6-methoxy-7-[3-(4-methyl-piperidin-1-yl)-propoxy]-quinolin-4-yloxy}-phenyl)-amide] |
